The results in this text go back to a melting point compilation (Tetko et al.; mined from patent text by program, amines drawn as free bases though some values may be those of a salt).

A value given as a limit tells only on which side of the number the result lay.

The term melting point denotes the temperature of the solid-liquid transition. With `COc1cc2c(cc1OCc1ccccc1)C(C#N)C2` (stereo unspecified), the melting point was 85 °C. To `OC(Cc1nc[nH]n1)(Cc1nc[nH]n1)c1ccc(Cl)cc1Cl` belongs 182 to 185 °C. The result for `COC(=O)c1c2snnc2nn1C` reads 115 to 121 °C. Compound `CCc1nn2c(-c3ccc(OC)cc3Cl)cccc2c1N(CCF)CCOC` registered a melting point of 45.8 to 52.8 °C. For the compound `CC(C)(C)c1ccc(C(=O)Nc2cn3cc(-n4cncn4)ccc3n2)cc1`, the melting point lay within 274 to 276 °C. The compound `COc1ccc(C2CCSCC2)cc1OC1CCCC1` came in with a melting point of 83 to 85 °C. Regarding `CC(CCN1C(=O)c2ccccc2C1=O)=NO`, the melting point was in the range of 151 to 172 °C. In turn, `N#CCCn1[nH]c(C#N)c(N=Nc2ccc(S(=O)(=O)Cl)cc2)c1=O` came in with a melting point of 178 to 180 °C.

For `Cc1cc(CN(Cc2ccsc2)c2sc(-c3ccc(C(F)(F)F)cc3)nc2C)cc(C)c1OC(C)(C)C(=O)O`, the melting point lay within 90 to 100 °C. `Nc1nc2c(s1)CCN(C/C=C\c1cccnc1)CC2`: the melting point lay in the range of 125 to 126 °C. As for `Cc1c(C)c2c(c(C)c1OCc1ccccc1)C(=O)C(C)(C)O2`, the melting point was in the range of 114 to 115 °C. To `CC(=O)OC1(C(C)=O)C(C)CC2C3CC(C)C4=CC(=O)C=CC4(C)C3C(O)CC21C` (stereo unspecified) belongs 270 to 272 °C; to `COc1cccc(C=NNC(=O)OC(C)(C)C)c1`, 136 to 137 °C. The result for `CC12CCC3c4ccc(C(=O)O)cc4CCC3C1CCC2C(=O)C1CCCCC1` (stereo unspecified) reads 280 to 285 °C; that for `O=C(NO)c1cnc(NS(=O)(=O)c2ccc(C(=O)Nc3ccc(Cl)c(-c4ccccn4)c3)c(Cl)c2)nc1`, 215 to 220 °C; that for `CC(C(=O)N(C)C)n1nc(-c2ccccc2)c(Cl)c1Cl` (stereo unspecified), 102 to 103 °C. The result for `O=Cc1cccn2cc(-c3ccccc3)nc12` reads 96 to 99 °C; that for `COC(=O)c1nn(-c2ccc(Cl)cc2Cl)c(-c2ccc(Cl)cc2)c1CF`, 114 °C; that for `C=Cc1c(C(=O)OC)nc(-c2ccc(Cl)cc2)c(F)c1N`, 81 to 83 °C.

Compound `C1=CCC2=C(C1)CCc1ccccc1C2` had a melting point of 42.5 to 43 °C.

In turn, `CCOC(=O)C(O)C1OC(c2ccccc2Cl)c2cc(Cl)ccc2N(C(C)C)C1=O` (stereo unspecified) yielded a melting point of 126 to 128 °C. To `CCN1CCN(C(=O)c2ccc(-c3cc(-c4c(-c5cccc(C)n5)nc5c(C)cccn45)ccn3)cc2)CC1` belongs 212 °C. The compound `CN1CCCC(c2cccc3c2CC(=O)N3)C1` (stereo unspecified) registered a melting point of 160 °C. Take `CS(=O)(=O)c1ccccc1S`: the melting point was found to be 57 °C. To `O=Cc1c2ccccc2cc2c(C=O)c3ccccc3cc12` belongs 247 to 250 °C; to `CCc1cnc(CC(C#Cc2ccccc2)c2ccc(OC)c(OC3CCCC3)c2)o1` (racemic), 94 to 96 °C. To `Cc1oc(-c2ccccc2)nc1COc1ccccc1CCl` belongs 103 to 104 °C; to `COc1ccc(C)cc1NC(=O)Nc1ccc(N2CCN(C(=O)Oc3c(C)cccc3Cl)CC2)cc1`, 146 to 148 °C; to `CCOC(=O)CCc1cc(CCC(=O)O)cc(Cc2cccnc2)c1`, 62 to 64 °C. To `Nc1nc2c(ncn2Cc2cccnc2)c(=O)[nH]1` belongs above 300 °C; to `O=C(O)CNC(=O)c1ccc([N+](=O)[O-])c(F)c1`, 136 to 138 °C. `O=c1c(Cl)cn(-c2cc3[nH]c(=O)c(=O)[nH]c3cc2[N+](=O)[O-])cc1Cl` returned a melting point above 300 °C. As to `CC(C)(C)OC(=O)[C@@H]1C[C@H](c2ccccc2)CN1`, the melting point was 62 °C.

`COC(=O)[C@@H](NC(=O)c1ccc(C#Cc2ccc(C=O)cc2)cc1)[C@@H](C)O`: the melting point fell in the range of 143 to 144 °C. The result for `CCN(C)c1nc2sc3c(NCc4ccccn4)ncnc3c2c2c1CCC(C)(C)C2` reads 152 °C; that for `CN1CCN(c2cccc3c2C[C@H](NC(=O)c2ccccc2)CC3)CC1`, 195 to 196 °C; that for `Cc1nc(NC(=O)c2cnn3c(C(F)F)cc(-c4ccc(C(F)(F)F)cc4)nc23)sc1S(=O)(=O)NC(CO)CO`, 217 °C. To `O=S(=O)(N[C@H]1CC[C@H](CCN2CCN(c3nccc4c3OCC4)CC2)CC1)c1ccc(F)cc1` belongs 148 °C. The result for `CN(C)S(=O)(=O)Cc1ccccc1S(N)(=O)=O` reads 145 to 150 °C. The compound `CCC1=Nc2cccc(Cl)c2C(=O)C1` displayed a melting point of 236 to 239 °C. Regarding `COc1ccc(-c2noc(C)c2-c2ccc(OC)cc2)cc1`, the melting point lay in the range of 95 to 99 °C. To `Cn1nc(N)nc1NCCCOc1cccc(CNCc2ccccc2)c1` belongs 90 to 91 °C. To `C#CCON=Cc1cc(Cl)ccc1OC(=O)NC` belongs 97 to 100 °C; to `O=C(CCCC12CCC(=O)N1C(=O)CC2)OCc1ccccc1`, 102 to 105 °C. To `CC1(c2cc3ccccc3[nH]2)CCCCC1` belongs 50 °C.

Consider `O=C(c1ccc(Cl)c([N+](=O)[O-])c1)c1cnc(NC2CCCCC2)s1`, for which the melting point is 194 to 198 °C.

Consider `CONC(NC(C)=O)C(=O)NCc1ccccc1` (stereo unspecified), for which the melting point lay in the range of 95 to 97 °C.

`CCc1ccn(-c2ccc(S(C)(=O)=O)cc2)c1-c1ccc(F)cc1` showed a melting point of 107 to 108 °C.

Regarding `CCOC(=O)c1c(N2CCN(C(=O)c3cccs3)CC2)c2cnccc2n(Cc2ccc(F)cc2)c1=O`, the melting point amounted to 132 °C. Compound `CC(C)(C(=O)OCC(=O)c1ccccc1)n1c(=O)[nH]c2cc(Cl)ccc2c1=O` showed a melting point of 203 to 204 °C. To `CCOC(=O)Cc1nc(-c2ccc(Cl)cc2)oc1-c1cccs1` belongs 119 to 120 °C; to `C=CCNc1nc(N2CCCCC2)c2cc([N+](=O)[O-])ccc2n1`, 123 to 124 °C. Take `CC(=NOCCO)c1ccc(S(=O)(=O)c2ccccc2)cc1`: the melting point lay within 87 to 88 °C. Consider `COC(=O)c1c(C)nc2ccc(Br)cc2c1NCc1ccccc1`, for which the melting point worked out at 89 °C. To `OCCCc1cccc(CCCO)c1O` belongs 176 to 187 °C. As to `O=C(CCCOc1ccc(OCc2ccccc2)cc1)C(F)(F)F`, the melting point was in the range of 51 to 53 °C.

`Cn1c(=O)c2c(ncn2CCOC(=O)C(C)(C)Oc2ccc(Cl)cc2)n(C)c1=O` returned a melting point of 131 to 132 °C. As to `CC=CCNc1cc(C(=O)O)cc(S(N)(=O)=O)c1Sc1ccc(NC(C)=O)cc1`, the melting point amounted to 148 °C. In turn, `COCc1cc2c(s1)CCCc1cc(=O)n(-c3ccc(Cl)cc3)nc1-2` gave a melting point of 135 to 137 °C. As for `COc1ccc(CC(=O)CCCCCBr)cc1`, the melting point fell in the range of 41 to 43 °C. In turn, `Nc1ncnc2c1ncn2[C@H]1CO[C@@H](CO)C1` showed a melting point of 183 to 185 °C. `CS(=O)(=O)c1ccc(-c2cnn(-c3ccc(F)cc3)c(=O)c2Oc2ccc(F)cc2)cc1` yielded a melting point of 83 to 85 °C. In turn, `COc1cc(-c2ccc(C(C)(C)C)s2)cc2oc(=O)c(C)c(C)c12` registered a melting point of 137 °C.

`CCNc1c(C(=O)OCC)c(C)nc(OCC)c1[N+](=O)[O-]`: the melting point lay in the range of 40 to 42 °C. To `CC(c1cccnn1)c1cccc(Cl)c1Cl` (stereo unspecified) belongs 96 to 98 °C.

The compound `CNS(=O)(=O)c1c[nH]c(-c2ccc(Cl)cc2)n1` returned a melting point of 246 to 248 °C. To `c1cc2c3c(c1)NCC3CCC2` (stereo unspecified) belongs 58 to 59 °C.

The compound `COC(=O)c1cc(OC)cc(-c2ccc(NC(C)=O)cc2)n1` yielded a melting point of 223 to 224 °C. To `Cn1cc(C#N)cc1C=O` belongs 125 to 126 °C; to `CC(O)=C(C(=O)OC(c1ccccc1)c1ccccc1)N1C(=O)C(NC(=O)COc2ccccc2)C1SS(=O)(=O)c1ccc(C)cc1` (stereo unspecified), 150 to 152 °C; to `CC(=O)NC[C@H]1CN(c2ccc(N3CCC(Cc4nnc(N)s4)CC3)c(F)c2)C(=O)O1`, 206 to 207 °C.

Turning to `COc1ccccc1OCC(O)CCN1CCN(c2ccccc2)CC1` (stereo unspecified), the melting point was in the range of 101 to 102 °C. The result for `COC(=O)c1ccc([N+](=O)[O-])c(OCCO)c1` reads 97 to 98 °C. Regarding `CCCn1c(=O)c2nc([C@@H]3CCC[C@H]3c3ccccc3)[nH]c2n(CCC)c1=O` (relative stereo), the melting point lay in the range of 152 to 153 °C. `O=C1c2ccc(Cl)cc2C(=O)C(O)(O)C1(O)O` registered a melting point of 134 to 136 °C. The compound `CC(=O)Oc1cc(/C=C/c2ccccc2)cc(OC(C)=O)c1` came in with a melting point of 90 to 90.5 °C. To `Oc1c(CCCBr)ccc2ccccc12` belongs 53 to 55 °C; to `CCOc1ccc(C(C)=NOCCO)cc1`, 51 to 54 °C. As for `COC(=O)c1ccc(-c2nc(-c3ccc(C(C)(C)C)cc3)cs2)cc1`, the melting point was in the range of 154 to 155 °C.

`Cc1ccccc1CNC(=O)c1ccc2n1Cc1ccccc1N(C(=O)c1ccc(-c3ccccc3C)c(C)c1)C2` registered a melting point of 128 to 130 °C.

Consider `Ic1ccc(OC2CCCCO2)cc1` (stereo unspecified), for which the melting point is 66 °C. As to `O=C1c2ccccc2C(O)N1CCN1CCC(c2noc3cc(F)ccc23)CC1` (stereo unspecified), the melting point lay within 172 to 173 °C. The result for `O=C(O)CCc1cn(Cc2ccc(OCc3ccc4ccccc4n3)nc2)nc1-c1ccccc1` reads 166 to 167 °C; that for `COC(=O)[C@@H](NC(=O)OC(C)(C)C)[C@H](O)c1ccccc1`, 101 to 102 °C; that for `Nc1ccc(Cc2ccccc2)cn1`, 79 to 80 °C. Compound `CCOC(=O)CCC(=O)[C@H](Cc1ccccc1)NC(=O)OC(C)(C)C` gave a melting point of 56 to 58 °C.

In the case of `Cc1ccc(-n2nc3c(cc2=O)CCc2sc(C(C)O)cc2-3)cc1` (stereo unspecified), the melting point is 146 to 148 °C. The result for `COC1CC2(C)C(CCC3C4CC=C(C(C)=O)C4(C)CCC32)CC1O` (stereo unspecified) reads 183 to 187 °C. In turn, `CC1(C)Oc2c(cc(Cl)c3oc(C(=O)O)cc(=O)c23)-c2ccc([N+](=O)[O-])cc21` had a melting point of 278 to 279 °C. On to `COCc1ccc(CCCOc2c(C)cc(-c3noc(C(F)(F)F)n3)cc2C)cn1`, for which the melting point fell in the range of 50 to 53 °C. To `COC(=O)CCNC(=O)C(=Cc1ccccc1)CSC(=O)c1ccccc1` belongs 66 °C.
